Source: PMC3894558, “Chemical signatures and new drug targets for gametocytocidal drug development” (Scientific Reports, 2014)
Where a name gives a salt, the structure may show the parent alone. Read-outs that look alike come from different tables or passages of the source.

Columns and labels:
[1] = tested on: HepG2 cells; conditions: for IC50 in HepG2 cells / IC50: 11 concentrations, 1:3 dilution, Inactive = no significant activity at 46 µM; for % Max response: HepG2 cells; for IC50: read-out: IC50 in HepG2 cells
[2] = tested on: P. falciparum HB3 gametocytes; experiment: alamarBlue gametocyte viability assay, strain HB3; assay type: cell-based, Plasmodium falciparum
[3] = tested on: P. falciparum Dd2 gametocytes; experiment: alamarBlue gametocyte viability assay, strain Dd2; assay type: cell-based, Plasmodium falciparum
[4] = tested on: P. falciparum 3D7 gametocytes; experiment: alamarBlue gametocyte viability assay, strain 3D7; assay type: cell-based, Plasmodium falciparum
[5] = tested on: Dd2 asexual parasites; design: method as in PMID 17116676; conditions: cited from earlier work
[6] = tested on: HepG2 cells; experiment: cells; conditions: Homo sapiens, HepG2, read-out: % Max response
[7] = tested on: P. falciparum asexual parasites; design: method as in earlier work; conditions: SI Table 3, previous screens, cited from earlier work
[8] = tested on: mTOR; design: method as in PMID 21322566; conditions: cited from earlier work
[9] = tested on: P. falciparum asexual blood stage parasites; experiment: asexual parasite SYBR green assay; assay type: cell-based, Plasmodium falciparum
[10] = strain profiling, 11 concentrations, 1:3 dilution, three times, read-out: HB3-gametocytes IC50
[11] = strain profiling, 11 concentrations, 1:3 dilution, three times, read-out: Dd2-gametocytes IC50
[12] = P. falciparum 3D7 gametocytes, mean of at least 3 independent experiments, read-out: Gametocyte IC50
[13] = Plasmodium falciparum, 3D7, P. falciparum 3D7 gametocytes, mean of at least 3 independent experiments, read-out: Gametocyte IC50
[14] = Plasmodium falciparum, DD2, read-out: Dd2-gametocytes IC50
[15] = Plasmodium falciparum, HB3, strain profiling, 11 concentrations, 1:3 dilution, three times, read-out: HB3-gametocytes IC50
[16] = Plasmodium falciparum, DD2, strain profiling, 11 concentrations, 1:3 dilution, three times, read-out: Dd2-gametocytes IC50

Molecule: Monensin sodium
- IC50 in HepG2 cells [1]: Inactive
- % Max response [1]: 40%
- IC50 ([2]; read-out: HB3-gametocytes IC50, strain profiling, 11 concentrations, 1:3 dilution, three times): 0.264 µM
- IC50 ([3]; read-out: Dd2-gametocytes IC50, strain profiling, 11 concentrations, 1:3 dilution, three times): 0.372 µM
- IC50 ([4]; read-out: Gametocyte IC50, P. falciparum 3D7 gametocytes, mean of at least 3 independent experiments): 0.254 µM

Molecule: CC1(C)OC2=C(C(=O)c3ccccc3C2=O)[C@H](NCc2ccccc2)[C@@H]1O [CAY10581]
- % Max response [1]: -86%
- IC50 [1]: 17.1 µM
- IC50 [2, 10]: 0.662 µM
- IC50 [3, 11]: 2.35 µM
- IC50 [4, 12]: 0.743 µM

Molecule: CCN(CC)CCCC(C)Nc1ccnc2cc(Cl)ccc12 (stereo not shown) [Chloroquine diphosphate]
- fold less potent against Dd2 asexual parasites compared to 3D7 [5]: 10 fold
- IC50 ([2]; Plasmodium falciparum, HB3, read-out: HB3-gametocytes IC50, strain profiling, 11 concentrations, 1:3 dilution, three times): 0.935 µM
- reduction of potency against Dd2 gametocytes compared to 3D7 [3]: 3.7 fold
- IC50 ([3]; Plasmodium falciparum, DD2, read-out: Dd2-gametocytes IC50, strain profiling, 11 concentrations, 1:3 dilution, three times): 0.935 µM
- IC50 ([4]; Plasmodium falciparum, 3D7, read-out: 3D7-gametocytes IC50): 0.253 µM

Molecule: CC(=O)Nc1cccc(-n2c(=O)n(C3CC3)c(=O)c3c(Nc4ccc(I)cc4F)n(C)c(=O)c(C)c32)c1 [Trametinib]
- IC50 in HepG2 cells [1]: Inactive
- Emax [6]: 14%
- IC50 [4, 13]: 0.935 µM

Molecule: S=C(SSC(=S)N1CCCCC1)N1CCCCC1 [Dicyclopentamethylenethiuram disulfide]
- IC50 in HepG2 cells [1]: Inactive
- IC50 ([2]; Plasmodium falciparum, HB3, read-out: HB3-gametocytes IC50): 0.743 µM
- Emax [6]: 0%
- IC50 [3, 14]: 0.743 µM
- IC50 ([4]; Plasmodium falciparum, P. falciparum 3D7 gametocytes, mean of at least 3 independent experiments, read-out: Gametocyte IC50): 0.274 µM

Molecule: CCCCN(CCCC)CC(O)c1cc(Cl)cc2c1-c1ccc(Cl)cc1/C2=C/c1ccc(Cl)cc1 (stereo not shown) [Lumefantrine]
- Activity against asexual parasites Efficacy (% response) [7]: -93.57 % response
- IC50 ([7]; read-out: Activity against asexual parasites IC50): 0.02 µM
- IC50 [2, 15]: 0.033 µM
- IC50 [3, 16]: 0.013 µM
- Emax ([4]; Plasmodium falciparum, 3D7, SI Table 3, structure clusters, read-out: Activity against gametocytes Efficacy (% response)): 76.5%
- IC50 ([4]; Plasmodium falciparum, 3D7, strain profiling, 11 concentrations, 1:3 dilution, three times, read-out: 3D7-gametocytes IC50): 0.059 µM

Molecule: CN(C)C(=S)SSC(=S)N(C)C [Thiram]
- IC50 in HepG2 cells [1]: Inactive
- IC50 [2, 15]: 0.148 µM
- Emax [6]: 23%
- IC50 [3, 14]: 0.148 µM
- IC50 [4, 13]: 0.083 µM

Molecule: COc1ncc(-c2ccc3nccc(-c4ccnnc4)c3c2)cc1NS(=O)(=O)c1ccc(F)cc1F [GSK-458]
- IC50 in HepG2 cells [1]: Inactive
- % Max response [1]: 33%
- IC50 [2, 10]: 0.332 µM
- IC50 [3, 11]: 1.48 µM
- IC50 [4, 12]: 0.935 µM

Molecule: CC(=O)OC[C@H]1O[C@@H]([S-])[C@H](OC(C)=O)[C@@H](OC(C)=O)[C@@H]1OC(C)=O.CCP(CC)CC.[Au+] [Auranofin]
- % Max response [1]: -98%
- IC50 [1]: 9.35 µM
- IC50 [2, 10]: 1.05 µM
- IC50 [3, 11]: 1.18 µM
- IC50 [4, 12]: 0.935 µM

Molecule: CCC(=O)N1CCN(c2ccc(-n3c(=O)ccc4cnc5ccc(-c6cnc7ccccc7c6)cc5c43)cc2C(F)(F)F)CC1 [Torin 1, 1-[4-[4-(1-Oxopropyl)-1-piperazinyl]-3-(trifluoromethyl)phenyl]-9-(3-quinolinyl)-benzo[h]-1,6-naphthyridin-2(1H)-one]
- IC50 [2, 15]: 3.72 µM
- IC50 ([9]; Plasmodium falciparum, SYBR green assay, read-out: IC50 against asexual parasites): 0.215 µM
- IC50 [3, 16]: 5.26 µM
- IC50 ([4]; Plasmodium falciparum, 3D7, read-out: 3D7-gametocytes IC50, strain profiling, 11 concentrations, 1:3 dilution, three times): 6.62 µM
- IC50 ([4]; Plasmodium falciparum, 3D7, read-out: Gametocyte IC50, P. falciparum 3D7 gametocytes, mean of at least 3 independent experiments): 1.6 µM

Molecule: C[C@H]1[C@H](OC(=O)CCC(=O)O)O[C@@H]2O[C@@]3(C)CC[C@H]4[C@H](C)CC[C@@H]1[C@@]24OO3 [Artesunate]
- IC50 in HepG2 cells [1]: Inactive
- IC50 [2, 15]: 0.047 µM
- Emax [6]: 18%
- IC50 [3, 16]: 0.03 µM
- IC50 [4, 13]: 0.059 µM

Molecule: COc1cccc2c1C(=O)c1c(O)c3c(c(O)c1C2=O)C[C@@](O)(C(=O)CO)C[C@@H]3O[C@H]1C[C@H](N)[C@H](O)[C@H](C)O1 [Adriamycin]
- IC50 in HepG2 cells [1]: Inactive
- IC50 [2, 15]: 0.935 µM
- Emax [6]: -35%
- IC50 [3, 16]: 1.05 µM
- IC50 [4, 13]: 0.526 µM

Molecule: C[C@@H]1CC[C@H]2[C@@H](C)C(=O)O[C@@H]3O[C@@]4(C)CC[C@@H]1[C@]32OO4 [Artemisinin]
- IC50 in HepG2 cells [1]: Inactive
- IC50 [2, 15]: 0.074 µM
- Emax [6]: 18%
- IC50 [3, 16]: 0.061 µM
- IC50 [4, 13]: 0.148 µM

Molecule: CN1CCC(=C2c3ccccc3C=Cc3ccccc32)CC1 [Cyproheptadine hydrochloride]
- Activity against asexual parasites Efficacy (% response) [7]: inactive
- Activity against asexual parasites IC50 [7]: inactive
- Activity against gametocytes Efficacy (% response) ([4]; SI Table 3, structure clusters): -80.99 % response
